The results in this text go back to PubChem BioAssay (NCI).

Molecules are shown by their SMILES.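 Following 48 hours of exposure in 96-well plates, responses at five concentrations were used to interpolate endpoints linearly. Definition used: TGI = concentration required for complete inhibition of growth.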

Some test systems named below: MDA-N; NCI-H226 lung; KM12 colon; RXF 393 renal; NCI-H460 lung; EKVX NSCLC; SF-268 CNS; M14 melanoma; LOX IMVI melanoma; IGROV1 ovarian.
What all share (test): DTP human tumour cell line panel, 48 h

A word on the TGI: it is the concentration at which net growth stops. A lower TGI goes with more potent growth arrest. For the molecule `CCOc1ccc(N/C(=C(/C(Cl)=C(/Cl)N(CC)CC)[N+](=O)[O-])n2nnc3ccccc32)cc1`, the TGI in the test with MDA-N was 70.4 µM; in the test on NCI-H226 lung, more than 100 µM; in the test with KM12 colon, 26.3 µM; in the test with RXF 393 renal it was 29.2 µM; in the test with NCI-H460 lung, more than 100 µM; in the test on EKVX NSCLC, 69.6 µM. Moreover, the results for the TGI in the test with SF-268 CNS and in the test with M14 melanoma were 36.2 µM and 79 µM, respectively.
Regarding `CN(C)c1ccc(/C(F)=C(F)/C(F)=C(F)/C(F)=C(\F)c2ccc(Br)cc2)cc1`, the TGI in the test on MDA-N was 7.54 µM; in the test with NCI-H226 lung, more than 100 µM; in the test on KM12 colon, more than 100 µM; in the test with RXF 393 renal it was 38.7 µM; in the test with LOX IMVI melanoma, more than 100 µM; with NCI-H460 lung it was more than 100 µM. In addition, the TGI with EKVX NSCLC was more than 100 µM; with SF-268 CNS it was more than 100 µM; in the test on M14 melanoma it was more than 69.7 µM; in the test on IGROV1 ovarian it was more than 100 µM.
Take `COC(=O)C1CCC(=S)N1C(=O)c1ccccc1` (stereo not drawn): the TGI in the test with MDA-N, with KM12 colon, with RXF 393 renal, with NCI-H460 lung, in the test with EKVX NSCLC and with SF-268 CNS was more than 100 µM each time. Also, the TGI with M14 melanoma and in the test with IGROV1 ovarian was more than 100 µM in each case.
As to `CC1C(=O)N(c2ccccc2)NC12CCCc1ccccc12` (stereo not drawn), the TGI with MDA-N, in the test on NCI-H226 lung, in the test with KM12 colon, in the test on RXF 393 renal, in the test on LOX IMVI melanoma and with NCI-H460 lung was more than 100 µM throughout. Further, the TGI in the test with EKVX NSCLC, in the test on SF-268 CNS, in the test with M14 melanoma and in the test with IGROV1 ovarian was more than 100 µM each time.
For the molecule `Cc1cc(-c2nc3cc(F)ccc3s2)ccc1NC(=O)[C@@H](N)CCCCN`, the total growth inhibition concentration (TGI) in the test with MDA-N worked out at 3.27 µM; in the test with NCI-H226 lung, 18.1 µM; with KM12 colon it was 3.36 µM; in the test on RXF 393 renal it was 24.2 µM; with LOX IMVI melanoma it was 3.62 µM; with NCI-H460 lung it was 2.24 µM. In addition, the TGI was 16.5 µM in the test on EKVX NSCLC, 22.6 µM in the test with SF-268 CNS, 4.86 µM with M14 melanoma and 18.3 µM with IGROV1 ovarian.
With `CSCCC(N)C(=O)NCCNc1ccc(NCCNC(=O)C(N)CCSC)c2c1C(=O)c1ccccc1C2=O` (stereo not drawn), the TGI in the test on MDA-N was 4.23 µM; in the test on NCI-H226 lung, 7.46 µM; in the test on KM12 colon, 12.8 µM; in the test on RXF 393 renal, 4.73 µM; in the test with LOX IMVI melanoma, 2.54 µM; in the test with NCI-H460 lung, 9.33 µM. In addition, the TGI came out at 9.65 µM with EKVX NSCLC, 4.55 µM in the test on SF-268 CNS, 12 µM in the test with M14 melanoma and 12.2 µM in the test with IGROV1 ovarian.
Turning to `COC(=O)c1cc(=O)[nH]c(=O)[nH]1`, the TGI with MDA-N, in the test on NCI-H226 lung, in the test with RXF 393 renal, with LOX IMVI melanoma, with NCI-H460 lung and in the test on EKVX NSCLC was more than 100 µM throughout. Further, the TGI with SF-268 CNS, in the test with M14 melanoma and in the test on IGROV1 ovarian was more than 100 µM in each case.
With `OCC(O)C(O)C(O)C(O)c1nc2ccc(Cl)cc2[nH]1` (stereo not drawn), the TGI with MDA-N, in the test with NCI-H226 lung, with KM12 colon, in the test with RXF 393 renal, in the test on LOX IMVI melanoma and in the test with NCI-H460 lung was more than 100 µM in each case. The total growth inhibition concentration (TGI) in the test with EKVX NSCLC, with SF-268 CNS, in the test with M14 melanoma and in the test with IGROV1 ovarian was more than 100 µM each time.
As to `O=C1C(Cl)=C(OCCCl)C(=O)c2c(O)ccc(O)c21`, the TGI with MDA-N is 7.37 µM; in the test with NCI-H226 lung it was 30.7 µM; with KM12 colon, 40.5 µM; in the test with RXF 393 renal it was 18.6 µM; in the test on LOX IMVI melanoma it was 12.4 µM; in the test with NCI-H460 lung, 40.7 µM. The concentration for total growth inhibition (TGI) with EKVX NSCLC turned out to be 34.2 µM; in the test with SF-268 CNS, 17.1 µM; with M14 melanoma, 4.19 µM; with IGROV1 ovarian, 19.7 µM.
`C[C@H](NC(=O)C(Cc1ccccc1)(Cc1ccc(O)cn1)NC(=O)c1ccccc1)c1ccccc1` (stereo partly drawn): the total growth inhibition concentration (TGI) in the test on MDA-N was 30.7 µM; in the test with NCI-H226 lung, 36.5 µM; in the test with KM12 colon, 49.4 µM; in the test with RXF 393 renal, 28.2 µM; with LOX IMVI melanoma, 29.7 µM; in the test with EKVX NSCLC it was 34.2 µM. The TGI with SF-268 CNS amounted to 39.1 µM; in the test on M14 melanoma it was 29.4 µM; in the test on IGROV1 ovarian, 37 µM.
On to `Nc1ccc(S(=O)(=O)c2ccc(NCN3C(=O)NC(=O)C(=O)C3=O)cc2)cc1`, for which the concentration for total growth inhibition (TGI) in the test on MDA-N, with NCI-H226 lung, with KM12 colon, in the test with RXF 393 renal, with LOX IMVI melanoma and with NCI-H460 lung was more than 100 µM each time. Besides, the TGI in the test with EKVX NSCLC, in the test with SF-268 CNS, in the test with M14 melanoma and in the test on IGROV1 ovarian was more than 100 µM throughout.
`CC(NC(=O)C(NC(=O)CNC(=O)OC(C)(C)C)C(C)C)C(=O)Oc1c(Cl)c(Cl)c(Cl)c(Cl)c1Cl` (stereo not drawn): the total growth inhibition concentration (TGI) in the test on MDA-N is more than 100 µM; with NCI-H226 lung, 52.6 µM; with KM12 colon, 30.4 µM; in the test on RXF 393 renal, 44.6 µM; in the test on LOX IMVI melanoma, 32.5 µM; in the test on NCI-H460 lung it was 39.3 µM. In addition, the TGI in the test with EKVX NSCLC amounted to 83.8 µM; with SF-268 CNS it was 65.2 µM; in the test with M14 melanoma it was 39.5 µM; in the test with IGROV1 ovarian, 46.6 µM.
With `COc1ccc(CC(N)c2ccc(OC)cc2)cc1` (stereo not drawn), the TGI in the test on MDA-N, with NCI-H226 lung, in the test with KM12 colon, with RXF 393 renal, in the test with LOX IMVI melanoma and with NCI-H460 lung was more than 100 µM throughout. Further, the TGI with EKVX NSCLC, in the test with SF-268 CNS, in the test with M14 melanoma and with IGROV1 ovarian was more than 100 µM in each case.
`O=C(NCCCCCCCCCCCCNC(=O)Nc1cccc2ccccc12)Nc1cccc2ccccc12`: the TGI with MDA-N was found to be 31.2 µM; with KM12 colon it was 33.6 µM; in the test on RXF 393 renal, 30.6 µM; in the test with LOX IMVI melanoma, 34.2 µM; in the test on NCI-H460 lung, 29.4 µM; in the test with EKVX NSCLC it was 43.3 µM. Besides, the TGI in the test on SF-268 CNS is 31.3 µM; in the test with M14 melanoma, 43.6 µM; with IGROV1 ovarian, 36.3 µM.
